Results as given in patent US4564614A, “Antiinflammatory methods” (priority 1985, dated 1986).

What was measured:
[1] = test system: piroxicam-induced gastric lesions; assay: animal or person; assay type: in vivo, rat (CD strain, Sprague-Dawley); settings: for Lesions/Rat (mean +/- SE): with 120 mg/kg ethanolamine salt of piroxicam; for Significance p < 0.05: Student's two-tailed t test vs piroxicam-only control; for reduction of piroxicam-induced gastric lesions: healthy fasted rat
Protocol: Adult male "specific pathogen free" rats weighing 140-160 grams of the CD strain (Sprague-Dawley) were obtained from Charles River Breeding Laboratories (Kingston, N.Y.) The animals were acclimated for approximately one week and tested when they reached a body weight of 200-225 grams. The rats were fasted for 16 hours and randomized into groups consisting of 8 to 20 animals which were normalized with regard to their average body weight.
Gastric ulcers were induced in the animals by orally dosing them with a single 120 mg/kg dose of piroxicam (ethanolamine salt) in 2 ml. of aqueous 0.1% methylcellulose (pH=6.8). Those animals receiving a second medicinal agent separately received the second drug in an additional 2 ml. of the same medium at about the same time. Six and one-half hours later, the animals were sacrificed by cervical dislocation and autopsied. The stomachs were surgically removed, dissected along the greater curvature and rinsed with cold water. The stomachs were individually scored for both linear and punctuate lesions. The total number of lesions was used for scoring purposes. The data obtained from each group of rats was analyzed after calculation of the mean number ± the standard error of total gastric lesions. The values obtained were also compared to the controls which received only piroxicam by the two-tailed Student's T-Test for non-paired data.

[2] = 50-150 mg/day for 3 months, rheumatoid arthritis patients; cited from earlier work
rheumatoid arthritis = settings: 50-150 mg/day for 3 months, rheumatoid arthritis patients, most taking aspirin; cited from earlier work
ulcers = settings: 1.1 mg/kg, injection; cited from earlier work
gastric ulcers = settings: subcutaneous injection; cited from earlier work

Cc1ncc(CO)c(CO)c1O.Cl [Pyridoxine Hydrochloride, pyridoxine hydrochloride]
Lesions/Rat (mean +/- SE) ([1]; 3.3 mg/kg oral, 10 rats): 7.0 (1.1) | Lesions/Rat (mean +/- SE) ([1]; 10 mg/kg oral, 30 rats): 4.2 (1.2) | Lesions/Rat (mean +/- SE) ([1]; 33 mg/kg oral, 50 rats): 3.9 (1.1) | Significance p < 0.05 ([1]; 33 mg/kg oral): + (p < 0.05) | Lesions/Rat (mean +/- SE) ([1]; 100 mg/kg oral, 20 rats): 2.7 (1.1) | Significance p < 0.05 ([1]; 100 mg/kg oral): + (p < 0.05) | ED50 ([1]; Rattus norvegicus, 6.5 h, oral, linear regression analysis, 120 mg/kg ethanolamine salt of piroxicam, read-out: ED50 (dose required to inhibit 50% of control gastric lesion)): 33 mg/kg | increase in plasma levels of pyridoxal phosphate [2]: 2-5 fold | clinical improvements in the disease (rheumatoid arthritis): no clinical improvements

Cc1ncc(CO)c(CO)c1O [Pyridoxine, pyridoxine]
frequency of ulcers (ulcers): reduce the frequency of ulcers | healing of gastric ulcers (gastric ulcers): not promote the healing | pain of gastric ulcers (gastric ulcers): alleviate the pain

CC(=O)Nc1ccc(O)cc1 [acetaminophen]
reduction of piroxicam-induced gastric lesions [1]: significantly reduce

CN1C(=O)CN=C(c2ccccc2)c2cc(Cl)ccc21 [diazepam]
reduction of piroxicam-induced gastric lesions [1]: significantly reduce

CN(C)CCC=C1c2ccccc2COc2ccccc21 [doxepin]
reduction of piroxicam-induced gastric lesions [1]: significantly reduce

c1ccc(CCNc2nc(-c3ccccc3)cs2)cc1 [fanetizole]
reduction of piroxicam-induced gastric lesions [1]: significantly reduce

CC(C)(C)NCC(O)c1ccc(O)c(CO)n1 (centres unmarked) [pirbuterol]
reduction of piroxicam-induced gastric lesions [1]: significantly reduce
